Assay results reported in US20240316150A1, “METHOD FOR PREVENTION OR TREATMENT OF DISEASES CAUSED BY PATHOGEN-[…] PATTERN” (priority 2021, published 2024).
Where two headings read alike, the source gives them in different places. Ends that are not written are not given here.

Columns and labels:
[1] = Sirius Red staining of liver, carbon tetrachloride plus LPS mice; assay type: in vivo, BALB/c mice; conditions: LPS 0.3 mg/kg i.p. for 2 weeks on carbon tetrachloride injury
Description: In another experiment, adult male BALB/c mice were injected intraperitoneally with escalated dosage of carbon tetrachloride (CC14 from 1.0 to 2.5 ml/kg body weight) for 2 weeks. And then some mice were given lipopolysaccharides injection (LPS at 0.3 mg/kg, i.p.) for an additional 2 weeks. Under sustained injury conditions, some mice were supplemented with cholestyramine at 3% w/w in the chow for another 4 weeks. […] It is well known that hepatic injury induced activation of hepatic stellate cells (HSCs) mediate hepatic fibrosis.

[2] = system: monocytes; assay type: cell-based; conditions: Example 26, FIG. 22
[3] = system: occludin; test: Occludin mRNA in ileum (RT-qPCR), carbon tetrachloride plus LPS mice; assay type: in vivo, BALB/c mice; conditions: LPS 0.3 mg/kg i.p. for 2 weeks
Description: The tight junction proteins are essential components of intestinal epithelial cells and the innate immune system. In one experiment, adult male BALB/c mice were intraperitoneally injected with carbon tetrachloride (CC14, 1.0-2.5 ml/kg body weight) for 2 weeks. Then, some mice were given lipopolysaccharides (LPS, 0.3 mg/kg, i.p.) for an additional 2 weeks.

[4] = system: Muc-2; test: Muc-2 mRNA in ileum (RT-qPCR), carbon tetrachloride plus LPS mice; assay type: in vivo, BALB/c mice; conditions: LPS 0.3 mg/kg i.p. for 2 weeks
Description: In one experiment, adult male BALB/c mice were intraperitoneally injected with escalated dosage of carbon tetrachloride (CC14 from 1.0 to 2.5 ml/kg body weight) for an additional 2 weeks. Then, some mice were given lipopolysaccharides (LPS, 0.3 mg/kg, i.p.) for an additional 2 weeks.

[5] = system: α-defensin-5 (DEFA5) produced by Paneth cells; test: α-defensin-5 expression in ileum, carbon tetrachloride plus LPS mice; assay type: in vivo, BALB/c mice; conditions: LPS 0.3 mg/kg i.p. for 2 weeks
Description: In one experiment, adult male BALB/c mice were intraperitoneally injected with escalated dosage of carbon tetrachloride (CC14 from 1.0 to 2.5 ml/kg body weight) for 2 weeks. Then, some mice were given lipopolysaccharides (LPS, 0.3 mg/kg, i.p.) for an additional 2 weeks. […] Lower DEFA5 levels worsen gut microbiota into dysbiosis state, and conversely, increased level of endotoxin may contribute to liver inflammation, leading to tissue injury and fibrogenesis.

[6] = system: interleukin-1β (IL-1β); test: IL-1β mRNA in liver, carbon tetrachloride plus LPS mice; assay type: in vivo, BALB/c mice; conditions: LPS 0.3 mg/kg i.p. for 2 weeks on carbon tetrachloride injury
Description: In one experiment, adult male BALB/c mice were intraperitoneally injected with escalated levels of carbon tetrachloride (CC14, 1.0-2.5 ml/kg body weight) for 2 weeks. Then, some mice were given lipopolysaccharides (LPS, 0.3 mg/kg, i.p.) for an additional 2 weeks. Under the condition, some mice were supplemented with cholestyramine at 3 w/w. % in the chow for an additional 4 weeks. […] It is known that PAMPs activate many types of cells to produce interleukin-1 (IL-1), leading to fever, cytokine storms, and tissue damage. In this current disclosure, the cationic polymer in the oral administration can be used for sequestration of intestinal endotoxins, which consequently can alleviate drug-induced liver inflammation, a common mechanism of action for many types of liver injury and fibrogenesis.

[7] = system: type-1 collagen, α-1; test: Type-1 collagen mRNA in liver, carbon tetrachloride plus LPS mice; assay type: in vivo, BALB/c mice; conditions: LPS 0.3 mg/kg i.p. for 2 weeks on carbon tetrachloride injury
Description: In one experiment, adult male BALB/c mice were intraperitoneally injected with escalated dosage of carbon tetrachloride (CC14, 1.0-2.5 ml/kg body weight) for 2 weeks. Then, some adult male BALB/c mice were given additional lipopolysaccharides (LPS, 0.3 mg/kg, i.p.) for 2 weeks. At such condition, some mice were supplemented with cholestyramine at 3%w/w in the chow for 4 weeks. […] In normal liver tissues, HSCs are quiescent, featured as storing vitamin A and producing type-4 collagen and other loose extracellular matrix (ECM). The high expression of collagen and the formation of fibrotic septa are common in various liver diseases. […] Endotoxemia is common in various hepatic fibrosis and cirrhosis, caused by alcohol, drugs, viruses (such as HBV and HCV), and immune system disorders. Therefore, the current disclosure can be applied for treatment of various forms of liver fibrosis.

[8] = system: monocytes; assay type: cell-based
[9] = system: gut microbiota; test: Distribution of bacterial microbiota in feces, carbon tetrachloride mice given DEFA5; assay type: in vivo, BALB/c mice; conditions: 10 mg twice a week for 8 weeks
Description: In one experiment, adult male BALB/c mice were given intraperitoneal injections of carbon tetrachloride for 4 weeks; while continuing administration of carbon tetrachloride, some mice were given the synthetic human α-defensin-5 (DEFA5) (10 mg, twice a week) for 8 weeks.

[10] = Intestinal permeability by FITC levels in bloodstream, carbon tetrachloride mice; assay type: in vivo, BALB/c mice; conditions: 10 mg twice a week for 8 weeks, continued carbon tetrachloride
Description: In one experiment, adult male BALB/c mice were given intraperitoneal injections of carbon tetrachloride for 4 weeks; while continuing administration of carbon tetrachloride, some mice were given the synthetic human α-defensin-5 (DEFA5) (10 mg, twice a week) for 8 weeks. Finally, the mice were given fluorescein isothiocyanate (FITC). […] Vitamin D deficiency affects the expression of the defensins secreted by Paneth cells, resulting in small intestinal bacterial overgrowth (SIBO) and the translocation of PAMPs into the bloodstream, thereby causing chronic inflammation. Therefore, the defensins, as a therapeutic API, can treat various gastrointestinal disease and alleviate drug-induced liver fibrosis.

[11] = Bloodstream endotoxin (LAL test), carbon tetrachloride mice given DEFA5; assay type: in vivo, BALB/c mice; conditions: 10 mg twice a week for 8 weeks, continued carbon tetrachloride
Description: In one experiment, adult male BALB/c mice were given intraperitoneal injections of carbon tetrachloride for 4 weeks. While continuing administration of carbon tetrachloride, some mice were given the synthetic human α-defensin-5 (DEFA5) (10 mg, twice a week) for 8 weeks.

[12] = Sirius Red staining for liver fibrosis, carbon tetrachloride mice given DEFA5; assay type: in vivo, BALB/c mice; conditions: oral 10 mg twice a week for 8 weeks, continued carbon tetrachloride
Text: Paneth cells secret innate immune substances, such as antimicrobial peptides, to maintain intestinal homeostasis. The epithelial cells of the small intestine and the innate immune substances maintain the gastrointestinal barrier function, protect against the penetration of commensal and pathogenic bacteria, and safeguard intestinal epithelial cells. The antimicrobial peptides can suppress the small intestinal overgrowth of bacteria (SIBO), a common pathologic condition for many metabolic diseases. In one experiment, adult male BALB/c mice were given intraperitoneal injections of carbon tetrachloride for 4 weeks. While continuing administration of carbon tetrachloride, some mice were orally given synthetic human α-defensin-5 (10 mg, twice a week) for an additional 8 weeks (shown in FIG. 26A). […] The mechanism of action by the DEFA5 as API can be explained in part by inhibiting PAMPs, thereby reducing liver inflammation and damage, which in turn reduces the transdifferentiation of HSC and lowers liver fibrosis score.

Substance	drug-induced cirrhosis, fibrotic histological analysis (Sirius Red) [1]	increase of mRNA expression of IL-1B [2]	mRNA expression of occludin gene in ileum tissues [3]	mRNA expression of Muc-2 by Goblet cells in ileum tissue [4]	expression levels of α-defensin-5 (DEFA5) in ileum tissue [5]	drug-induced hepatic inflammation, mRNA expression of IL-1B in the liver [6]	drug-induced cirrhosis, type-I collagen mRNA [7]	increase of mRNA expression of TNF-α ([8]; Example 25, FIG. 21)	increase of mRNA expression of TNF-α ([8]; Example 27, FIG. 23)	balance of intestinal bacterial microbiota ([9]; continued carbon tetrachloride)	abundance of Bacteroidetes ([9]; feces)	abundance of Firmicutes ([9]; feces)	abundance of gamma-Proteobacteria ([9]; feces)	intestinal permeability (FITC levels in bloodstream) [10]	endotoxin translocation into the bloodstream [11]	liver fibrosis (Sirius Red) [12]
lipopolysaccharides [LPS]	exacerbate the drug-induced cirrhosis	about 9 times	suppressed the mRNA expression of occludin gene	reduced the mRNA expression of Muc-2	suppressed the expression levels of α-defensin-5 (DEFA5)	exacerbates the drug-induced hepatic inflammation	exacerbates the drug-induced cirrhosis	about 8 times	about 10 times	–	–	–	–	–	–	–
α-defensin-5 (ATCYCRHGRCATRESLSGVCEISGRLYRLCC; not fully specified (bridges); also: three disulfide bonds) [DEFA5, ATCYCRHGRCATRESLSGVCEISGRLYRLCCR, three disulfide bonds; antimicrobial peptide of Paneth cells]	–	–	–	–	–	–	–	–	–	balanced the intestinal bacterial microbiota	increasing the abundance	reducing the abundance	reducing the abundance	reduce intestinal permeability	reduced endotoxin translocation into the bloodstream	reduced liver fibrosis caused by liver injury
